The results in this text go back to patent US20250353849A1, “PURINE COMPOUNDS FOR TREATING DISORDERS” (MARVEL BIOTECHNOLOGY, priority 2021, published 2025).

The structures appear in SMILES notation. Where two headings read alike, the source gives them in different places.

Test [1] has as its target T1, ADORA2A (Homo sapiens, UniProt P29274). Description: GPCR screening, Calcium Flux (calcium mobilization), Antagonist format. It is filed as cell-based. Conditions: for Emax: read-out: Max Response. The procedure: (§1) Cell lines were expanded from freezer stocks according to standard procedures. Cells were seeded in a total volume of 20 μL into black-walled, clear-bottom, Poly-D-lysine coated 384-well microplates and incubated at 37° C. for the appropriate time prior to testing.
(§2) Assays were performed in 1×Dye Loading Buffer consisting of 1×Dye, 1×Additive A and 2.5 mM Probenecid in HBSS/20 mM Hepes. Probenicid was prepared fresh. Cells were loaded with dye prior to testing. Media was aspirated from cells and replaced with 20 μL Dye Loading Buffer. Cells were incubated for 30-60 minutes at 37° C.
For antagonist determination, cells were pre-incubated with sample followed by agonist challenge at the EC80 concentration. Intermediate dilution of sample stocks was performed to generate 3X sample in assay buffer. After dye loading, cells were removed from the incubator and 10 μL 3X sample was added. Cells were incubated for 30 minutes at room temperature in the dark to equilibrate plate temperature. Vehicle concentration was 1%.
Compound antagonist activity was measured on a FLIPR Tetra (MDS). Calcium mobilization was monitored for 2 minutes and 10 μL EC80 agonist in HBSS/20 mM Hepes was added to the cells 5 seconds into the assay.
For antagonist and negative allosteric modulation mode assays, percentage inhibition is calculated using the following formula: […]
(§3) When the calcium was released, the fluorescence of the dye was increased and the increase was measured in real-time.
FIGS. 1 and 2 show percent reacted (Y) versus concentration in μM (X). Compounds were tested in antagonist mode with the requested GPCR Biosensor Assay. For the antagonist assay, data was normalized to the maximal and minimal response observed in the presence of EC80 ligand and vehicle.
On the technique in general: Calcium assays in cells follow changes in intracellular calcium, usually with a dye or a luminescent sensor.

Test [2] addresses T1, ADORA2A. Description: GPCR screening, Calcium Flux (calcium mobilization), Agonist format. It is filed as cell-based. Conditions: read-out: Max Response. The procedure: as §1, §2
For agonist determination, cells were incubated with sample to induce response. […] Cells were incubated for 30 minutes at room temperature in the dark to equilibrate plate temperature.
Compound activity was analyzed using CBIS data analysis suite (ChemInnovation, CA).
as §3

Where [3] appears, read: Calcium Flux, Antagonist format.
The mark [4] stands for this setting: Calcium Flux, Antagonist format, EC80 0.021 μM NECA, read-out: RC50 (Result Type IC50).
Where [5] appears, read: antagonist mode, text to FIGS. 1 and 2, EC80 0.021 μM NECA, read-out: half maximal inhibitory concentration (IC50).

T1 sequence (P29274 whole entry): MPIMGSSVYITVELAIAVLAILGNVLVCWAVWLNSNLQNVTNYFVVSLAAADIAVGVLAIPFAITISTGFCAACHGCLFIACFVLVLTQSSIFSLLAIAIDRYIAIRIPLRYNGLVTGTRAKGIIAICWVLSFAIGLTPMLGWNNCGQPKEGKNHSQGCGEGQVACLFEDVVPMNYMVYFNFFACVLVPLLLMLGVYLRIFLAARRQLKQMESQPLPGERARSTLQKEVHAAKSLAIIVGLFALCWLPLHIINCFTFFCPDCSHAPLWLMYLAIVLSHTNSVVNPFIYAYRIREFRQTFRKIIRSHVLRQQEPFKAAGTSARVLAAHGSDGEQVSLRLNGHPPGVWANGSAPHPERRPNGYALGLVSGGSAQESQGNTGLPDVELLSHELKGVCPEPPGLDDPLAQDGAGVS

Turning to `CCn1c(=O)c2c(nc(/C=C/c3ccc(OC)c(OCF)c3)n2C)n(CC)c1=O` [Compound 8, (E)-1,3-diethyl-8-(3-(fluoromethoxy)-4-methoxystyryl)-7-methyl-3,7-dihydro-1H-purine-2,6-dione], in test [1] (setting [3]), the “Curve Bottom” value stood at 7.8668, the “Curve Top” value is on record as 99.957, the Hill is 1.7211 and the Emax worked out at 99.1%. In addition, the IC50 in test [1] (setting [4]) stood at 174 nM. In addition, in test [1] (setting [5]), the IC50 stood at 174 nM. Also, the Emax in test [2] came to 0%.
Consider `CCn1c(=O)c2c(nc(/C=C/c3ccc(OCF)c(OC)c3)n2C)n(CC)c1=O` [Compound 9, (E)-1,3-diethyl-8-(4-(fluoromethoxy)-3-methoxystyryl)-7-methyl-3,7-dihydro-1H-purine-2,6-dione], for which, in test [1] (setting [3]), the “Curve Bottom” value is recorded as “−.090144”, the “Curve Top” value was found to be 99.922, the Hill is listed as 1.3438 and the Emax turned out to be 99.7%. Also, the IC50 in test [1] (setting [4]) came to 95.5 nM. The IC50 in test [1] (setting [5]) came out at 95.5 nM. Besides, the Emax in test [2] came out at 0%.
